# Data as given in patent US11033597B2, “Dermatological kit comprising compositions based on hibiscus flower and buriti oil” (MEDICAL BRANDS RESEARCH B.V., priority 2014, dated 2021).
# “Also recorded” adds a separate entry of the source.
# Test system: human skin explants
# Assay: Exfoliating action of plant extracts on human skin explants ex vivo (morphology of the stratum corneum)
# Assay type: cell-based
# Conditions: for Exfoliating activity, Result: day 4, compared to control group TJ
# Experimental: Particular attention is paid to the morphology of the stratum corneum.
# Activity is assessed by examination of the morphology.
# The explants were stored in BEM (BIO-EC's Explants Medium) at 37° C. in a humid atmosphere enriched with 5% C02.
# The test product is applied topically at a rate of 2 μl per explant, using a spatula to spread, on days 0, 2 and 3.
# On day 0, the 3 explants of batch T0 were removed and cut into 2. One portion was fixated in a buffered formalin solution and the second part was frozen at −80° C. At Day 4, the 3 explants of each batch were taken and treated in the same manner.
# After a fixation of 24 hours in buffered formalin, the samples were dried and soaked in paraffin using an automatic dehydration system, Leica TP 1020. They were embedded in a resin using a coating system Leica EG 1160.
# Slices of 5 microns have been produced using a microtome type Minot Leica RM 2125 and mounted on microscope slides type histological SuperFrost®.
# Microscopic observations were performed by optical microscopy, using a Leica Orthoplan microscope and an Olympus BX43. The shots were made with an Olympus DP72 camera and Cell ^ D software.
# Paraffin sections were stained with Masson's trichrome stain, Goldner variant. Microscopic examination was carried out to assess the general morphology of the dermal and epidermal structures.
# Particular attention was paid to the morphology of the Stratum Corneum.
Structure (SMILES),"exfoliation of the upper layers of the stratum corneum (morphology) (0.25% (C3), day 4)","exfoliation of the upper layers of the stratum corneum (morphology) (0.5% (C2), day 4)","Exfoliating activity, Result (0.5% (C2))","exfoliation of the upper layers of the stratum corneum (morphology) (1% (C1), day 4)","Exfoliating activity, Result (1% (C1))","number of cell layers of the SC (1% (C1), day 4)","number of cell layers of the SC (0.5% (C2), day 4)","exfoliating activity, comparison of products (especially samples of 1% concentration, day 4)"
"O=C(O)CO [Product P4, glycolic acid]",appeared normal; also recorded: no appreciable exfoliating activity,very light and irregular exfoliation of the upper layers,3,light and irregular exfoliation of the upper layers; also recorded: slight irregular exfoliation,4,–,–,–
"CC(O)C(=O)O (stereo not drawn) [Product P3, Lactic acid]",appeared normal; also recorded: no appreciable exfoliating activity,very light exfoliation of the upper layers,2,light exfoliation of the upper layers,4,slightly reduced,–,–
"O=C(O)c1ccccc1O [Product P1, Natural Salicylic Acid]",appeared normal; also recorded: does not present a significant exfoliating activity,appeared normal; also recorded: does not present a significant exfoliating activity,–,light exfoliation of the upper layers,4,slightly reduced,–,–
"O=C(O)C(Cl)(Cl)Cl [Product P6, trichloroacetic acid]",appeared normal; also recorded: no significant activity in the exfoliation,light and irregular exfoliation of the upper layers; also recorded: uneven exfoliation,4,moderate exfoliation of the upper layers,6,moderately reduced,slightly reduced,best exfoliating activity
